Assay results reported in US9981964B2 (Agency for Science, Technology and Research, priority 2013, dated 2018).

test system: HEK293-STF3A cells; assay: STF3A assay (STF luciferase reporter in Wnt3A-expressing HEK293 cells); format: cell-based; conditions: Homo sapiens, 24 h, 1 day of treatment
Excerpt: HEK293-STF cell line was modified from Human embryonic kidney cell line HEK293 transfected with the STF reporter. HEK293-STF3A cell line was further modified from HEK293-STF cell line to express Wnt3A. This cell line was used to identify compounds that regulate either early or late signaling components of the Wnt pathway. These two cell lines were obtained from David Virshup's laboratory, Duke-NUS. L-Wnt3A (ATCC, #CRL-2647) cell line was used for providing Wnt3A conditioned media. The three cell lines were grown in DMEM with 10% FBS incubated in 37° C. with 5% CO2.
2×10^4 HEK293-STF3A cells in 75 μl culture media were seeded in each well of white 96 well plates (Greiner #655098) and incubated overnight at 37° C. 25 μl serially diluted compound was added to the cells to give final concentration of 50 μM to 1.5 nM. After 1 day of treatment, 100 μl of Steady-Glo Luciferase Assay reagent (#E2520, Promega) was added to each well and incubated for 10 minutes at room temperature. Luminescence was measured using Tecan Safire2 plate reader.

**Q.** How did the IC50 turn out when CN1C(=O)C2=C(C1=O)N(CC(=O)Nc1ccc(-c3ccncn3)cc1)CCC2 [Compound 73, 2-(6-methyl-5,7-dioxo-2,3,4,5,6,7-hexahydro-1H-pyrrolo[3,4-b]pyridin-1-yl)-N-(4-(pyrimidin-4-yl)phenyl)acetamide] was run?
**A.** Its IC50 is greater than 10000 nM.

**Q.** How did the IC50 turn out when CN1C(=O)c2c(n(CC(=O)Nc3ccc(-c4cccnc4)cn3)ccc2=O)C1=O [Compound 63, N-(3,3′-bipyridin-6-yl)-2-(6-methyl-4,5,7-trioxo-4,5,6,7-tetrahydro-1H-pyrrolo[3,4-b]pyridin-1-yl)acetamide] was run?
**A.** The IC50 was less than 1000 nM.

**Q.** With CN1C(=O)C2=C(C1=O)N(CC(=O)Nc1ccc(-c3cccnn3)cc1)CCC2 [Compound 47, 2-(6-methyl-5,7-dioxo-2,3,4,5,6,7-hexahydro-1H-pyrrolo[3,4-b]pyridin-1-yl)-N-(4-(pyridazin-3-yl)phenyl)acetamide] as the compound, how does the IC50 read?
**A.** The IC50 was less than 1000 nM.

**Q.** For CN1C(=O)C2=C(C1=O)N(CC(=O)Nc1ccc(-c3cccc(C(F)(F)F)c3)nn1)CCC2 [Compound 50, 2-(6-methyl-5,7-dioxo-2,3,4,5,6,7-hexahydro-1H-pyrrolo[3,4-b]pyridin-1-yl)-N-(6-(3-(trifluoromethyl)phenyl)pyridazin-3-yl)acetamide], which IC50 is on record?
**A.** Its IC50 is less than 100 nM.

**Q.** For O=C(CN1CCCC2=C1C(=O)N(C1CC1)C2=O)Nc1ccc(-c2cncc(C(F)(F)F)c2)nn1 [Compound 54, 2-(6-cyclopropyl-5,7-dioxo-2,3,4,5,6,7-hexahydro-1H-pyrrolo[3,4-b]pyridin-1-yl)-N-(6-(5-(trifluoromethyl)pyridin-3-yl)pyridazin-3-yl)acetamide], which IC50 is on record?
**A.** Its IC50 is less than 100 nM.

**Q.** For O=C(CN1CCCC2=C1C(=O)N(C1CC1)C2=O)Nc1ccc(-c2cncnc2)cn1 [Compound 89, 2-(6-cyclopropyl-5,7-dioxo-2,3,4,5,6,7-hexahydro-1H-pyrrolo[3,4-b]pyridin-1-yl)-N-(5-(pyrimidin-5-yl)pyridin-2-yl)acetamide], which IC50 is on record?
**A.** The IC50 was less than 100 nM.

**Q.** Which IC50 does the source give for Cc1cc(NC(=O)CN2CCCC3=C2C(=O)N(C)C3=O)ncc1-c1cccnc1 [Compound 114, 2-(6-methyl-5,7-dioxo-2,3,4,5,6,7-hexahydro-1H-pyrrolo[3,4-b]pyridin-1-yl)-N-(4-methyl-[3,3′-bipyridin]-6-yl)acetamide] here?
**A.** Its IC50 is less than 5000 nM.

**Q.** With CN1C(=O)C2=C(C1=O)N(CC(=O)Nc1ccc(-c3ccccn3)cn1)CCC2 [Compound 1, N-([2,3′-bipyridin]-6′-yl)-2-(6-methyl-5,7-dioxo-2,3,4,5,6,7-hexahydro-1H-pyrrolo[3,4-b]pyridin-1-yl)acetamide] as the compound, how does the IC50 read?
**A.** The IC50 was less than 100 nM.

**Q.** How did the IC50 turn out when CN1C(=O)C2=C(C1=O)N(CC(=O)Nc1ccc(-c3cncnc3)nc1)CCC2 [Compound 103, 2-(6-methyl-5,7-dioxo-2,3,4,5,6,7-hexahydro-1H-pyrrolo[3,4-b]pyridin-1-yl)-N-(6-(pyrimidin-5-yl)pyridin-3-yl)acetamide] was run?
**A.** The IC50 was less than 1000 nM.

**Q.** How did the IC50 turn out when CN1C(=O)C2=C(C1=O)N(CC(=O)Nc1ccc(-c3cccnc3)cc1)CCC2 [Compound 77, 2-(6-methyl-5,7-dioxo-2,3,4,5,6,7-hexahydro-1H-pyrrolo[3,4-b]pyridin-1-yl)-N-(4-(pyridin-3-yl)phenyl)acetamide] was run?
**A.** Its IC50 is less than 100 nM.

**Q.** For CN1C(=O)C2=C(C1=O)N(CC(=O)Nc1ccc(-c3nccs3)cc1)CCC2 [Compound 2, 2-(6-methyl-5,7-dioxo-2,3,4,5,6,7-hexahydro-1H-pyrrolo[3,4-b]pyridin-1-yl)-N-(4-(thiazol-2-yl)phenyl)acetamide], which IC50 is on record?
**A.** The IC50 was less than 100 nM.

**Q.** With CN1C(=O)C2=C(C1=O)N(CC(=O)Nc1ccc(-c3ccccc3)nc1)CCC2 [Compound 37, 2-(6-methyl-5,7-dioxo-2,3,4,5,6,7-hexahydro-1H-pyrrolo[3,4-b]pyridin-1-yl)-N-(6-phenylpyridin-3-yl)acetamide] as the compound, how does the IC50 read?
**A.** The IC50 was less than 100 nM.

**Q.** For CC(C(=O)Nc1ccc(-c2cccnc2)cn1)N1CCCC2=C1C(=O)N(C)C2=O (stereo not drawn) [Compound 11, N-([3,3′-bipyridin]-6-yl)-2-(6-methyl-5,7-dioxo-2,3,4,5,6,7-hexahydro-1H-pyrrolo[3,4-b]pyridin-1-yl)propanamide], which IC50 is on record?
**A.** The IC50 was less than 100 nM.

**Q.** CN1C(=O)C2=C(C1=O)N(CC(=O)Nc1ccc(-c3cncnc3)cc1)CCC2 [Compound 75, 2-(6-methyl-5,7-dioxo-2,3,4,5,6,7-hexahydro-1H-pyrrolo[3,4-b]pyridin-1-yl)-N-(4-(pyrimidin-5-yl)phenyl)acetamide] was tested. Which IC50 did it give?
**A.** The IC50 was less than 100 nM.

**Q.** Which IC50 does the source give for CN1C(=O)C2=C(C1=O)N(CC(=O)Nc1ccc(-c3cccc(F)c3)nn1)CCC2 [Compound 42, N-(6-(3-fluorophenyl)pyridazin-3-yl)-2-(6-methyl-5,7-dioxo-2,3,4,5,6,7-hexahydro-1H-pyrrolo[3,4-b]pyridin-1-yl)acetamide] here?
**A.** The IC50 was less than 100 nM.

**Q.** How did the IC50 turn out when CN1C(=O)C2=C(C1=O)N(CC(=O)Nc1cnc(-c3ccncc3)cn1)CCC2 [Compound 22, 2-(6-methyl-5,7-dioxo-2,3,4,5,6,7-hexahydro-1H-pyrrolo[3,4-b]pyridin-1-yl)-N-(5-(pyridin-4-yl)pyrazin-2-yl)acetamide] was run?
**A.** Its IC50 is greater than 10000 nM.

**Q.** For C[C@@H](C(=O)Nc1ccc(-c2ccccc2)nn1)N1CCCC2=C1C(=O)N(C)C2=O (single isomer, unassigned) [Compound 94], which IC50 is on record?
**A.** The IC50 was less than 100 nM.

**Q.** With CN1C(=O)c2c(n(CC(=O)Nc3ccc(-c4cccnc4)nn3)ccc2=O)C1=O [Compound 64, 2-(6-methyl-4,5,7-trioxo-4,5,6,7-tetrahydro-1H-pyrrolo[3,4-b]pyridin-1-yl)-N-(6-(pyridin-3-yl)pyridazin-3-yl)acetamide] as the compound, how does the IC50 read?
**A.** Its IC50 is less than 1000 nM.

**Q.** For Cc1cccc(-c2ccc(NC(=O)CN3CCCC4=C3C(=O)N(C)C4=O)nc2)n1 [Compound 34, 2-(6-methyl-5,7-dioxo-2,3,4,5,6,7-hexahydro-1H-pyrrolo[3,4-b]pyridin-1-yl)-N-(6-methyl-[2,3′-bipyridin]-6′-yl)acetamide], which IC50 is on record?
**A.** Its IC50 is less than 100 nM.

**Q.** Cc1ccc(-c2ccc(NC(=O)CN3CCCC4=C3C(=O)N(C3CC3)C4=O)nc2)nc1 [Compound 146, 2-(6-cyclopropyl-5,7-dioxo-2,3,4,5,6,7-hexahydro-1H-pyrrolo[3,4-b]pyridin-1-yl)-N-(5-methyl-2,3′-bipyridin-6′-yl)acetamide] was tested. Which IC50 did it give?
**A.** The IC50 was less than 1000 nM.

**Q.** With Cc1cncc(-c2ccc(NC(=O)CN3CCCC4=C3C(=O)N(C3CC3)C4=O)nc2)n1 [Compound 128, 2-(6-cyclopropyl-5,7-dioxo-2,3,4,5,6,7-hexahydro-1H-pyrrolo[3,4-b]pyridin-1-yl)-N-(5-(6-methylpyrazin-2-yl)pyridin-2-yl)acetamide] as the compound, how does the IC50 read?
**A.** Its IC50 is less than 100 nM.

**Q.** For Cc1ccc(-c2ccc(NC(=O)CN3CCCC4=C3C(=O)N(C3CC3)C4=O)cn2)cn1 [Compound 44, 2-(6-cyclopropyl-5,7-dioxo-2,3,4,5,6,7-hexahydro-1H-pyrrolo[3,4-b]pyridin-1-yl)-N-(6′-methyl-[2,3′-bipyridin]-5-yl)acetamide], which IC50 is on record?
**A.** The IC50 was less than 100 nM.

**Q.** For CC(C(=O)Nc1ccc(-c2ccccn2)cn1)N1CCCC2=C1C(=O)N(C)C2=O (stereo not drawn) [Compound 17, N-([2,3′-bipyridin]-6′-yl)-2-(6-methyl-5,7-dioxo-2,3,4,5,6,7-hexahydro-1H-pyrrolo[3,4-b]pyridin-1-yl)propanamide], which IC50 is on record?
**A.** Its IC50 is less than 100 nM.

**Q.** With Cc1ncccc1-c1ccc(NC(=O)CN2CCCC3=C2C(=O)N(C)C3=O)nn1 [Compound 134, 2-(6-methyl-5,7-dioxo-2,3,4,5,6,7-hexahydro-1H-pyrrolo[3,4-b]pyridin-1-yl)-N-(6-(2-methylpyridin-3-yl)pyridazin-3-yl)acetamide] as the compound, how does the IC50 read?
**A.** The IC50 was less than 5000 nM.
